Among the test systems are OVCAR-8 ovarian; SK-OV-3 ovarian; SW-620 colon; EKVX NSCLC; OVCAR-5 ovarian; HOP-62 NSCLC; U251 CNS; MDA-MB-435; SR leukemia; SF-268 CNS.
Common to all, as to test: NCI tumour cell line growth inhibition, 48 h

Several values for one entry are separate records, joined by “and”; a condition that tells them apart may be missing. Identical values can stand only once.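 Assay format: 96-well plates, 48-hour exposure. GI50: concentration for 50% inhibition of growth. TGI: total growth inhibition.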

`Clc1ccc(COC(Cn2ccnc2)c2ccc(Cl)cc2Cl)c(Cl)c1` (stereo not given): the GI50 in the test on OVCAR-8 ovarian was 4.21 µM; in the test on SK-OV-3 ovarian, 2990 nM; in the test on SW-620 colon, 4.34 µM; in the test with EKVX NSCLC it was 5.64 µM; in the test on OVCAR-5 ovarian, 9.81 µM; with HOP-62 NSCLC it was 2070 nM. Moreover, the GI50 with U251 CNS is 3.57 µM; in the test with MDA-MB-435 it was 2390 nM; with SR leukemia it was 4.34 µM and 2.47 µM and 5.92 µM; in the test with SF-268 CNS it was 7.87 µM. In addition, the TGI was 27.3 µM and 36.9 µM and 22.1 µM in the test with OVCAR-8 ovarian; 9.92 µM and 27.5 µM and 27.4 µM in the test on SK-OV-3 ovarian; 17.5 µM and 29.9 µM and 28.8 µM in the test on SW-620 colon; 18.4 µM and 29.1 µM and 23.1 µM in the test with EKVX NSCLC; 21.7 µM and 32.4 µM and 25.8 µM with OVCAR-5 ovarian; 5.73 µM and 27.2 µM and 26.6 µM in the test with HOP-62 NSCLC. Also, the TGI was 16.1 µM and 25.8 µM and 23.6 µM in the test with U251 CNS; 6.89 µM and 13 µM and 9.97 µM with MDA-MB-435; 18.3 µM and 12.3 µM and 22.4 µM in the test on SR leukemia; 24.9 µM and 26.9 µM and 28.6 µM in the test with SF-268 CNS.

`COCC(=O)NC/C=C/c1ccc2ncnc(Nc3ccc(Oc4ccc(C)nc4)c(C)c3)c2c1`: the GI50 in the test with OVCAR-8 ovarian was 15.9 µM; with SK-OV-3 ovarian, 295 nM; in the test on SW-620 colon, 17.4 µM; in the test on EKVX NSCLC it was 4.16 µM; with OVCAR-5 ovarian it was 12.7 µM; with HOP-62 NSCLC, 22400 nM. Besides, the GI50 in the test on U251 CNS is 13.2 µM; in the test on MDA-MB-435 it was 11400 nM; with SR leukemia, 10.7 µM; with SF-268 CNS, 15.7 µM. Further, the TGI in the test with OVCAR-8 ovarian worked out at 92.4 µM; in the test on SK-OV-3 ovarian, 4.52 µM; in the test on SW-620 colon, 40.9 µM; in the test with EKVX NSCLC, 48.7 µM; in the test with OVCAR-5 ovarian it was 35.9 µM; with HOP-62 NSCLC it was 71 µM. For the same compound, the TGI stood at 31.9 µM with U251 CNS, 29.9 µM in the test on MDA-MB-435, 50.4 µM in the test on SR leukemia and 50.9 µM in the test with SF-268 CNS.

Consider `CCC(=O)Nc1ncnc2ncn(C(=O)CC)c12`, for which the TGI with OVCAR-8 ovarian, with SK-OV-3 ovarian, with SW-620 colon, with EKVX NSCLC, in the test on OVCAR-5 ovarian and with HOP-62 NSCLC was more than 100 µM throughout. Moreover, the TGI in the test with U251 CNS, with MDA-MB-435, in the test on SR leukemia and with SF-268 CNS was more than 100 µM in each case.

In the case of `CCCc1n(Cc2ccc3ccccc3n2)cc[n+]1Cc1ccc2ccccc2c1`, the GI50 was 0.779 µM in the test with OVCAR-8 ovarian; 1260 nM in the test with SK-OV-3 ovarian; 1.91 µM in the test with SW-620 colon; 2.16 µM in the test with EKVX NSCLC; 2.39 µM in the test on OVCAR-5 ovarian; 1630 nM in the test on HOP-62 NSCLC. For the same compound, the GI50 was 0.38 µM in the test with U251 CNS, 443 nM in the test on MDA-MB-435, 0.472 µM with SR leukemia and 1.01 µM in the test on SF-268 CNS. Also, the TGI stood at 4.65 µM in the test with OVCAR-8 ovarian; 4.02 µM in the test with SK-OV-3 ovarian; 11.7 µM in the test on SW-620 colon; 14.9 µM in the test with EKVX NSCLC; 12.5 µM in the test with OVCAR-5 ovarian; 5.38 µM in the test with HOP-62 NSCLC. Also, the TGI turned out to be 2.54 µM in the test on U251 CNS, 2.17 µM in the test on MDA-MB-435, 3.03 µM with SR leukemia and 10.6 µM in the test with SF-268 CNS.

The values are drawn from PubChem BioAssay (NCI).
